Data as given in patent US20060069132A1, “Azolecarboxamide herbicides” (priority 2004, published 2006).

Tests used:
corn = experiment: Test C pre-/postemergence herbicide test; format: in vivo, Zea mays; settings: preemergence
In short: (§1)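 Emerged plants at the 1- to 4-leaf stage (2–18 cm), or freshly planted seeds, received test chemicals in a non-phytotoxic solvent mixture with surfactant. Response was visually scored against controls after 12 to 14 days in the greenhouse, on a 0 (no effect) to 100 (complete control) scale.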

[1] = test system: smallflower umbrella sedge; experiment: Test C flooded paddy test; format: in vivo, Cyperus difformis
giant foxtail [2] = experiment: Test A pre-/postemergence herbicide test; format: in vivo, Setaria faberi
In short: (§2)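 Both application timings were run together: directed soil spray over freshly planted seeds in sandy loam, and runoff spray onto 2–10 cm seedlings. Evaluation after ~10 days in greenhouse used a 0–100 visual scale versus untreated controls.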

barnyardgrass = experiment: Test A pre-/postemergence herbicide test; format: in vivo, Echinochloa crus-galli
In short: as §2

johnsongrass = experiment: Test C pre-/postemergence herbicide test; format: in vivo, Sorghum halepense; settings: preemergence
In short: as §1

rice = experiment: Test C flooded paddy test; format: in vivo, Oryza sativa
In short: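 Postemergence sprays applied to plants 2 to 18 cm tall (1- to 4-leaf stage); paddy species grown to 2-leaf stage under flooding. After 12 to 14 days in greenhouse, visual rating versus untreated controls on 0–100 scale (0 no effect, 100 complete control).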

large crabgrass = experiment: Test A pre-/postemergence herbicide test; format: in vivo, Digitaria sanguinalis
In short: as §2

giant foxtail [3] = experiment: Test C pre-/postemergence herbicide test; format: in vivo, Setaria faberi; settings: preemergence
In short: as §1

kochia = experiment: Test C pre-/postemergence herbicide test; format: in vivo, Kochia scoparia; settings: preemergence
In short: as §1

common ragweed = experiment: Test C pre-/postemergence herbicide test; format: in vivo, Ambrosia elatior; design: key to Plant response rating, Ragweed: 0 = no effect, 100 = complete control; settings: preemergence
In short: as §1

[4] = 125 g ai/ha, scale 0 (no effect) to 100 (complete control), visual, 12 to 14 days
[5] = 125 g ai/ha, scale 0 to 100 (0 no effect, 100 complete control)
[6] = 250 g ai/ha, scale of 0 to 100, 0 is no effect, 100 is complete control
[7] = 500 g ai/ha, visual rating after 12 to 14 days, scale 0 to 100 (0 no effect, 100 complete control)
[8] = Postemergence, 500 g ai/ha, 0 to 100 scale, 0 no effect, 100 complete control
[9] = Postemergence, 2000 g ai/ha, 0 to 100 scale, 0 no effect, 100 complete control
[10] = Preemergence, 2000 g ai/ha, visual rating, 0 to 100 scale (0 no effect, 100 complete control)
[11] = preemergence, 500 g ai/ha, visual injury, 0 to 100 scale (0 no effect, 100 complete control)

CCNC(=O)c1ccc(F)c(NC(=O)c2cc(C3(C)CC3)nn2CC)c1 [Compound 300]
Plant response rating, Corn (corn; 62 g ai/ha, scale 0 to 100): 30
Plant response rating, Corn (corn; [4]): 30
Plant response rating, Corn (corn; 250 g ai/ha, scale 0-100): 35
Sedge, Umbrella plant response rating ([1]; 62 g ai/ha, scale 0 to 100): 80
Sedge, Umbrella plant response rating [1, 5]: 80
Sedge, Umbrella plant response rating [1, 6]: 85
Plant response rating, Sedge, Umbrella [1, 7]: 90
Foxtail, Giant plant response rating (giant foxtail [2]; [8]): 55
Plant response rating, Foxtail, Giant (giant foxtail [2]; [9]): 90
Foxtail, Giant plant response rating (giant foxtail [2]; [10]): 100
Foxtail, Giant plant response rating (giant foxtail [2]; [11]): 95
Barnyardgrass plant response rating (barnyardgrass; [8]): 75
Plant response rating, Barnyardgrass (barnyardgrass; [9]): 90
Barnyardgrass plant response rating (barnyardgrass; [10]): 100
Barnyardgrass plant response rating (barnyardgrass; [11]): 90
Plant response rating, Johnsongrass (johnsongrass; 62 g ai/ha, scale 0 to 100): 60
Plant response rating, Johnsongrass (johnsongrass; [4]): 85
Plant response rating, Johnsongrass (johnsongrass; 250 g ai/ha, scale 0-100): 95
Rice plant response rating (rice; 62 g ai/ha, scale 0 to 100): 40
Rice plant response rating (rice; [5]): 55
Rice plant response rating (rice; [6]): 70
Plant response rating, Rice (rice; [7]): 75
Crabgrass, Large plant response rating (large crabgrass; [8]): 55
Plant response rating, Crabgrass, Large (large crabgrass; [9]): 90
Crabgrass, Large plant response rating (large crabgrass; [10]): 100
Crabgrass, Large plant response rating (large crabgrass; [11]): 90
Plant response rating, Foxtail, Giant (giant foxtail [3]; 62 g ai/ha, scale 0 to 100): 30
Plant response rating, Foxtail, Giant (giant foxtail [3]; [4]): 65
Plant response rating, Foxtail, Giant (giant foxtail [3]; 250 g ai/ha, scale 0-100): 100
Plant response rating, Kochia (kochia; 62 g ai/ha, scale 0 to 100): 60
Plant response rating, Kochia (kochia; [4]): 100
Plant response rating, Kochia (kochia; 250 g ai/ha, scale 0-100): 100
Plant response rating, Ragweed (common ragweed; 62 g ai/ha, scale 0 to 100): 5
Plant response rating, Ragweed (common ragweed; 250 g ai/ha, scale 0-100): 10
